Test results reported in the supplement of paper PMC10307832.

How the values were obtained:
Test in all cases: relative viability (nuclei count vs DMSO), 5 days (fraction); higher = more cells survive
MK-2206 + Linsitinib = compound: NC1(c2ccc(-c3nc4ccn5c(=O)[nH]nc5c4cc3-c3ccccc3)cc2)CCC1 [MK-2206] + C[C@]1(O)C[C@@H](c2nc(-c3ccc4ccc(-c5ccccc5)nc4c3)c3c(N)nccn32)C1 [Linsitinib] (partner 1 µM)
In short: (§1)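 Medians of duplicate plates are given as relative viability. That measure is the nuclei count in treated wells divided by the count in vehicle wells. Counts were taken on 4× images of lung cancer cell lines in 1536-well plates, 5 days after pin-tool dosing the day after seeding with one drug alone or a fixed anchor-drug dose plus five library-drug doses (not always all listed) in √10 steps.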

MK-2206 + Lapatinib = compound: NC1(c2ccc(-c3nc4ccn5c(=O)[nH]nc5c4cc3-c3ccccc3)cc2)CCC1 [MK-2206] + CS(=O)(=O)CCNCc1ccc(-c2ccc3ncnc(Nc4ccc(OCc5cccc(F)c5)c(Cl)c4)c3c2)o1 [Lapatinib] (partner 2 µM)
In short: as §1

Pictilisib + Vorinostat = compound: CS(=O)(=O)N1CCN(Cc2cc3nc(-c4cccc5[nH]ncc45)nc(N4CCOCC4)c3s2)CC1 [Pictilisib] + O=C(CCCCCCC(=O)Nc1ccccc1)NO [Vorinostat] (partner 1 µM)
In short: as §1

Pictilisib + Decitabine = compound: CS(=O)(=O)N1CCN(Cc2cc3nc(-c4cccc5[nH]ncc45)nc(N4CCOCC4)c3s2)CC1 [Pictilisib] + Nc1ncn([C@H]2C[C@H](O)[C@@H](CO)O2)c(=O)n1 [Decitabine] (partner 2 µM)
In short: as §1

MK-2206 + Pemetrexed = compound: NC1(c2ccc(-c3nc4ccn5c(=O)[nH]nc5c4cc3-c3ccccc3)cc2)CCC1 [MK-2206] + Nc1nc2[nH]cc(CCc3ccc(C(=O)N[C@@H](CCC(=O)O)C(=O)O)cc3)c2c(=O)[nH]1 [Pemetrexed] (partner 0.2 µM)
In short: as §1

UMC-11 was tested, and the relative viability (MK-2206 + Linsitinib; first compound 0.01 µM) was 1.1, the relative viability (MK-2206 + Linsitinib; first compound 0.03162 µM) was 1.02 and the relative viability (MK-2206 + Linsitinib; first compound 0.3162 µM) was 1.01. It also gave a relative viability (MK-2206 + Linsitinib; first compound 1 µM) of 1.01, a relative viability (MK-2206 + Lapatinib; first compound 0.01 µM) of 1.27 and a relative viability (MK-2206 + Lapatinib; first compound 0.03162 µM) of 1.1. It also gave a relative viability (MK-2206 + Lapatinib; first compound 0.3162 µM) of 0.99, a relative viability (MK-2206 + Lapatinib; first compound 1 µM) of 0.941 and a relative viability (Pictilisib + Vorinostat; first compound 0.02 µM) of 0.366. The relative viability (Pictilisib + Vorinostat; first compound 0.06325 µM) was 0.414, the relative viability (Pictilisib + Vorinostat; first compound 0.6325 µM) was 0.464 and the relative viability (Pictilisib + Vorinostat; first compound 2 µM) was 0.354. The relative viability (Pictilisib + Decitabine; first compound 0.02 µM) was 0.644, the relative viability (Pictilisib + Decitabine; first compound 0.06325 µM) was 0.724 and the relative viability (Pictilisib + Decitabine; first compound 0.6325 µM) was 0.566. The relative viability (Pictilisib + Decitabine; first compound 2 µM) was 0.519, the relative viability (MK-2206 + Pemetrexed; first compound 0.01 µM) was 0.862 and the relative viability (MK-2206 + Pemetrexed; first compound 0.03162 µM) was 0.763. The relative viability (MK-2206 + Pemetrexed; first compound 0.3162 µM) was 0.836 and the relative viability (MK-2206 + Pemetrexed; first compound 1 µM) was 0.791.
